Results from publication PMC6879241 (Antimicrobial Agents and Chemotherapy, 2019).
Values after ≈ are worked out from the molar mass of the structure shown. Values joined by “and” are separate entries in the source; they are usually repeats but may differ in a detail not shown here. Equal entries are not always repeated. Where two headings read alike, the source gives them in different places.

Key:
B. mallei = assay: microbe, parasite or virus in culture; type: cell-based, Burkholderia mallei; conditions: for MIC50 / MIC90: Burkholderia mallei
P. aeruginosa ATCC 27853 = assay: microbe, parasite or virus in culture; type: cell-based; conditions: Pseudomonas aeruginosa, ATCC27853
[1] = tested on: B. pseudomallei strain 1026b; set-up: species or system BALB/c mice; conditions: mouse, in vivo
B. pseudomallei = assay: microbe, parasite or virus in culture; type: cell-based, Burkholderia pseudomallei; conditions: for MIC50 / MIC90: Burkholderia pseudomallei
E. coli ATCC 25922 = assay: microbe, parasite or virus in culture; type: cell-based; conditions: Escherichia coli, ATCC25922
[2] = tested on: intracellular B. pseudomallei 1026b; conditions: cited from earlier work
human Topo I = human Topo I (Homo sapiens, UniProt P11387); assay: biochemical
human Topo I, sequence (P11387 whole entry): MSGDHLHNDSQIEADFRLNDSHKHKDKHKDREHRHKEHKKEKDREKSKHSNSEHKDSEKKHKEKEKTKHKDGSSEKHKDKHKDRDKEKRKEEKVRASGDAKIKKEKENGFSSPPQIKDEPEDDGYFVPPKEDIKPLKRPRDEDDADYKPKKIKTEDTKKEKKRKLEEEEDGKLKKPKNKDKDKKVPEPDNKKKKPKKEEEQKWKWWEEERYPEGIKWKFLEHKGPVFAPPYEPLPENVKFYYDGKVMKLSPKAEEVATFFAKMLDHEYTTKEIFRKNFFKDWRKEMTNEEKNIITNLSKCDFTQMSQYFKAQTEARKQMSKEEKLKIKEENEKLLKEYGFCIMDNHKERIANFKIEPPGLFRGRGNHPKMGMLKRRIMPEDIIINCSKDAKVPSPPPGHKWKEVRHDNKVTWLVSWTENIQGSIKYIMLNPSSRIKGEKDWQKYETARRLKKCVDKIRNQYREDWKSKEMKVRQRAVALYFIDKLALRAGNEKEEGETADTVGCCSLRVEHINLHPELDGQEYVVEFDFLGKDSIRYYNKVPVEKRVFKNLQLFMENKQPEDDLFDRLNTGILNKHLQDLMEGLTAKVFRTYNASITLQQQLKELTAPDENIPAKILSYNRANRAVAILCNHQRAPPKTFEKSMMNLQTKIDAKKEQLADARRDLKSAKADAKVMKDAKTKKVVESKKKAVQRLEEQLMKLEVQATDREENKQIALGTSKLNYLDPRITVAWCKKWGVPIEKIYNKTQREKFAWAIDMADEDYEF

Y. pestis = assay: microbe, parasite or virus in culture; type: cell-based, Yersinia pestis
B. anthracis = assay: microbe, parasite or virus in culture; type: cell-based, Bacillus anthracis
F. tularensis = assay: microbe, parasite or virus in culture; type: cell-based, Francisella tularensis
[3] = tested on: B. pseudomallei 1026b-based efflux-proficient and -compromised strains; assay: microbe, parasite or virus in culture; type: cell-based; conditions: Burkholderia pseudomallei, read-out: MIC under efflux by BpeEF-OprC
[4] = target: Quinolone-resistant E. coli gyrase (Escherichia coli, UniProt P0AES4+P0AES6); type: biochemical; conditions: read-out: IC50, E. coli quinolone-resistant gyrase
S. aureus DNA gyrase = S. aureus DNA gyrase (Staphylococcus aureus, UniProt P0A0K8+P20831); assay: biochemical
S. aureus Topo IV = S. aureus Topo IV (Staphylococcus aureus, UniProt P0C1S7+P0C1U9); assay: biochemical
E. coli Topo IV = E. coli Topo IV (Escherichia coli, UniProt P0AFI2+P20083); assay: biochemical
E. coli Topo IV, sequence (P0AFI2 whole entry): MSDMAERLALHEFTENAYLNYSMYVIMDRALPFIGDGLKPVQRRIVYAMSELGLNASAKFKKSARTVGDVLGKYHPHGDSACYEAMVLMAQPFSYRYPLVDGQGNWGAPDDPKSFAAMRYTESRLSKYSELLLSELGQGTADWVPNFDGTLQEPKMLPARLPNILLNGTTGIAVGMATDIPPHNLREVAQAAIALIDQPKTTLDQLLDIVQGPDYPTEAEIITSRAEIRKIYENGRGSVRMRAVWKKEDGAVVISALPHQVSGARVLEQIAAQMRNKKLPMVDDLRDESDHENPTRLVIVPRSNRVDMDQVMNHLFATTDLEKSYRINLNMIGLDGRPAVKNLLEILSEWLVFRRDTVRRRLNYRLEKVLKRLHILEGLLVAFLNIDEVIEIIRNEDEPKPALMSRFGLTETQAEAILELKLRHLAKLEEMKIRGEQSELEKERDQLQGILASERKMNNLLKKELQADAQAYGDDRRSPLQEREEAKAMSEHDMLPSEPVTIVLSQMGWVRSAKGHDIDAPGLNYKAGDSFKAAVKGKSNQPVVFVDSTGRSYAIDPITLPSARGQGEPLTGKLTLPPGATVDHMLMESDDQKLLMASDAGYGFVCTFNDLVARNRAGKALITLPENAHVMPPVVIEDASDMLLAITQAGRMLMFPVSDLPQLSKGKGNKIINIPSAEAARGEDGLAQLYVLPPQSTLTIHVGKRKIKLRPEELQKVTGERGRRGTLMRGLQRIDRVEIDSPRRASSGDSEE
E. coli Topo IV, sequence (P20083 whole entry): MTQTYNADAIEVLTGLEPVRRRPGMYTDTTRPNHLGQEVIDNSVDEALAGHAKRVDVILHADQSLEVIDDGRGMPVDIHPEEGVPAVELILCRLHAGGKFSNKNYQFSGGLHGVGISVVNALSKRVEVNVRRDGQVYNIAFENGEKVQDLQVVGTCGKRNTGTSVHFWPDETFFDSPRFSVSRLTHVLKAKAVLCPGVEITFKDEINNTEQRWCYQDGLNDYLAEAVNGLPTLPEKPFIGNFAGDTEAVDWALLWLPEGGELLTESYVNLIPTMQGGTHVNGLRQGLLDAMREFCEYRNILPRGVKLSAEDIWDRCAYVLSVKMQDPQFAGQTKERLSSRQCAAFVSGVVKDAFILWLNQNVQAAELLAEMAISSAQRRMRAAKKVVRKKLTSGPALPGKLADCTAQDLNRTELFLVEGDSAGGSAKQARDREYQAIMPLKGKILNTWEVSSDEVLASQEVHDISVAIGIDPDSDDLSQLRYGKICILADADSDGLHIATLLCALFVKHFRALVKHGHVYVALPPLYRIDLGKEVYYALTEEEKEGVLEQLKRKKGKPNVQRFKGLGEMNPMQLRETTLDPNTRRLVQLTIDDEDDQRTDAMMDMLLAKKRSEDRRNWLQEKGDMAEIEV

[5] = tested on: intracellular B. pseudomallei 1026b; assay: microbe, parasite or virus in culture; type: cell-based, Burkholderia pseudomallei
E. coli DNA gyrase = E. coli DNA gyrase (Escherichia coli, UniProt P0AES4+P0AES6); assay: biochemical
[6] = tested on: B. pseudomallei strain 1026b; set-up: species or system BALB/c mice; conditions: mouse, in vivo; remark: listed apart in the source
[7] = not told
[8] = tested on: B. pseudomallei strain 1026b; type: cell-based, Burkholderia pseudomallei

CC[C@H]1OC(=O)[C@H](C)[C@@H](O[C@H]2C[C@@](C)(OC)[C@@H](O)[C@H](C)O2)[C@H](C)[C@@H](O[C@@H]2O[C@H](C)C[C@H](N(C)C)[C@H]2O)[C@](C)(O)C[C@@H](C)CN(C)[C@H](C)[C@@H](O)[C@]1(C)O [Azithromycin]
MIC range (B. mallei): 0.12 to 1 µg/mL | MIC50 (B. mallei): 0.5 µg/mL (≈ 0.668 µM) | MIC90 (B. mallei): 0.5 µg/mL (≈ 0.668 µM)

CC(C)(O/N=C(\C(=O)N[C@@H]1C(=O)N2C(C(=O)[O-])=C(C[n+]3ccccc3)CS[C@H]12)c1csc(N)n1)C(=O)O [Ceftazidime, ceftazidime]
MIC (P. aeruginosa ATCC 27853): 4 µg/mL (≈ 7.32 µM) | survival [1]: 100% | MIC50 (B. pseudomallei): 1 µg/mL (≈ 1.83 µM) | MIC90 (B. pseudomallei): 64 µg/mL (≈ 117 µM) | MIC (E. coli ATCC 25922): 0.25 µg/mL (≈ 0.457 µM) | effect on intracellular survival of B. pseudomallei in macrophages [2]: no effect

O=C(O)c1cn(C2CC2)c2cc(N3CCNCC3)c(F)cc2c1=O [Ciprofloxacin, ciprofloxacin]
MIC (P. aeruginosa ATCC 27853): 0.25 µg/mL (≈ 0.754 µM) | MIC (E. coli ATCC 25922): ≤ 0.008 µg/mL | IC50 (human Topo I): > 100 µM

C[C@H]1c2cccc(O)c2C(=O)C2=C(O)[C@]3(O)C(=O)C(C(N)=O)=C(O)[C@@H](N(C)C)[C@@H]3[C@@H](O)[C@@H]21 [Doxycycline, doxycycline]
MIC (P. aeruginosa ATCC 27853): > 16 µg/mL | MIC range (B. pseudomallei): ≤0.06 to 32 µg/mL | MIC50 (B. pseudomallei): 0.5 µg/mL (≈ 1.13 µM) | MIC90 (B. pseudomallei): 4 µg/mL (≈ 9 µM) | MIC (E. coli ATCC 25922): 1 µg/mL (≈ 2.25 µM)

N#Cc1c(N2C[C@@H]3NCCO[C@H]3C2)c(F)cc2c(=O)c(C(=O)O)cn(C3CC3)c12 [Finafloxacin, finafloxacin, reference compound]
MIC 50% (Y. pestis): 0.06 µg/mL (≈ 0.151 µM) | MIC 90% (Y. pestis): 0.12 µg/mL (≈ 0.301 µM) | MIC range (Y. pestis): 0.015 to 0.25 µg/mL | MIC 50% (B. anthracis): 0.06 µg/mL (≈ 0.151 µM) | MIC 90% (B. anthracis): 0.12 µg/mL (≈ 0.301 µM) | MIC range (B. anthracis): 0.03 to 0.12 µg/mL | MIC 50% (F. tularensis): ≤0.004 µg/mL | MIC 90% (F. tularensis): 0.008 µg/mL (≈ 0.0201 µM) | MIC range (F. tularensis): ≤0.004 to 0.12 µg/mL | MIC 50% (B. pseudomallei): 4 µg/mL (≈ 10 µM) | MIC 90% (B. pseudomallei): 8 µg/mL (≈ 20.1 µM) | MIC 50% (B. mallei): 0.25 µg/mL (≈ 0.628 µM) | MIC 90% (B. mallei): 2 µg/mL (≈ 5.02 µM) | MIC range (B. mallei): 0.015 to 2 µg/mL

Cc1c(-c2cc(F)c(N)cc2F)ccn2c(=O)c(C(=O)O)cc(C3CC3)c12 [GC-072]
MIC [3]: 0.5 to 1 µg/mL (≈ 1.35 to 2.7 µM) | MIC range (Y. pestis): 0.002 to 0.03 µg/mL | MIC50 (Y. pestis; Yersinia pestis): 0.008 µg/mL (≈ 0.0216 µM) | MIC90 (Y. pestis; Yersinia pestis): 0.015 µg/mL (≈ 0.0405 µM) | IC50 [4]: 1.3 to 1.5 µM | MIC (P. aeruginosa ATCC 27853): 1 µg/mL (≈ 2.7 µM) | MIC range (B. anthracis): ≤0.0005 to 0.004 µg/mL | MIC50 (B. anthracis; Bacillus anthracis): 0.001 µg/mL (≈ 0.0027 µM) | MIC90 (B. anthracis; Bacillus anthracis): 0.002 µg/mL (≈ 0.0054 µM) | MIC range (F. tularensis): ≤0.0005 to 0.015 µg/mL | MIC50 (F. tularensis; Francisella tularensis): ≤ 0.0005 µg/mL | MIC90 (F. tularensis; Francisella tularensis): ≤ 0.0005 µg/mL | IC50 (S. aureus DNA gyrase): 2 µM | MIC range (B. pseudomallei): ≤0.008 to 1 µg/mL | share of strains with MICs higher than 0.5 μg/ml (B. pseudomallei): 7% | MIC50 (B. pseudomallei): 0.12 µg/mL (≈ 0.324 µM) | MIC90 (B. pseudomallei): 0.25 µg/mL (≈ 0.675 µM) | IC50 (S. aureus Topo IV): 4 to 30 µM | IC50 (E. coli Topo IV): 4.22 to 8.45 µM | MIC (E. coli ATCC 25922): ≤ 0.004 µg/mL | IC50 (human Topo I): > 100 µM | viable intracellular bacteria 24 h after initiation of treatment [5]: no viable bacteria detectable | MIC ([5]; Burkholderia pseudomallei, read-out: MIC for B. pseudomallei strain 1026b measured for the intracellular experiment): 0.25 µg/mL (≈ 0.675 µM) | IC50 (E. coli DNA gyrase): 0.18 to 1.5 µM | MIC range (B. mallei): ≤0.004 to 0.5 µg/mL | MIC50 (B. mallei): 0.015 µg/mL (≈ 0.0405 µM) | MIC90 (B. mallei): 0.12 µg/mL (≈ 0.324 µM) | animals that survived to the end of the experiment [6]: four | median survival time [6]: 4.5 days and 4.75 days and 5.63 days | overall survival rate of the treated groups [6]: 87% | survival [6]: 90% and 80% | permeability [7]: good | MIC for B. pseudomallei 1026b (time-kill study) [8]: 0.125 µg/mL | share of the full killing effect observed within 5 h [8]: more than 75%

C[C@@H](O)[C@H]1C(=O)N2C(C(=O)O)=C(S[C@@H]3CN[C@H](C(=O)N(C)C)C3)[C@H](C)[C@H]12 [Meropenem, meropenem]
MIC range (B. pseudomallei): ≤0.06 to 4 µg/mL | MIC50 (B. pseudomallei): 0.5 µg/mL (≈ 1.3 µM) | MIC90 (B. pseudomallei): 1 µg/mL (≈ 2.61 µM)
